Assay results reported in PubChem BioAssay (NCI).
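Each compound was tested at five concentrations against cells in 96-well plates for 48 hours. At the GI50, growth is halved. TGI marks complete inhibition of growth.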

Assays:
Test in all cases: NCI-60 cell line screen, 48 h
[1] = tested on: UACC-62 melanoma
[2] = tested on: LOX IMVI melanoma
[3] = tested on: SNB-75 CNS
[4] = tested on: CAKI-1 renal
[5] = tested on: RPMI-8226 leukemia
[6] = tested on: A498 renal
[7] = tested on: U251 CNS
[8] = tested on: 786-0 renal
[9] = tested on: MALME-3M melanoma
[10] = tested on: SK-MEL-28 melanoma
[11] = tested on: SK-MEL-5 melanoma
[12] = tested on: TK-10 renal
[13] = tested on: NCI/ADR-RES ovarian
[14] = tested on: UO-31 renal
[15] = tested on: HCT-15 colon
[16] = tested on: MOLT-4 leukemia
[17] = tested on: OVCAR-8 ovarian
[18] = tested on: OVCAR-5 ovarian
[19] = tested on: COLO 205 colon
[20] = tested on: BT-549 breast
[21] = tested on: SNB-19 CNS
[22] = tested on: NCI-H460 lung
[23] = tested on: KM12 colon
[24] = tested on: MCF7 breast
[25] = tested on: NCI-H522 lung
[26] = tested on: SK-OV-3 ovarian
[27] = tested on: HOP-92 NSCLC
[28] = tested on: OVCAR-3 ovarian
[29] = tested on: HS 578T breast
[30] = tested on: HT29 colon
[31] = tested on: MDA-MB-231 breast
[32] = tested on: EKVX NSCLC
[33] = tested on: SN12C renal
[34] = tested on: ACHN renal
[35] = tested on: SK-MEL-2 melanoma
[36] = tested on: DU-145 prostate
[37] = tested on: RXF 393 renal
[38] = tested on: PC-3 prostate
[39] = tested on: NCI-H23 lung
[40] = tested on: IGROV1 ovarian
[41] = tested on: K-562 leukemia
[42] = tested on: SF-295 CNS
[43] = tested on: MDA-MB-435
[44] = tested on: M14 melanoma
[45] = tested on: A549 NSCLC
[46] = tested on: OVCAR-4 ovarian
[47] = tested on: SW-620 colon
[48] = tested on: CCRF-CEM leukemia
[49] = tested on: HCT-116 colon
[50] = tested on: NCI-H226 lung
[51] = tested on: UACC-257 melanoma
[52] = tested on: HCC-2998 colon
[53] = tested on: SF-268 CNS
[54] = tested on: SF-539 CNS
[55] = tested on: HOP-62 NSCLC

SMILES: O=C1N=C2c3c(sc4c3CCCC4)N=CN2C1N=Nc1ccc(Cl)cc1 (stereo not given)
- GI50 [1]: 16.7 µM
- TGI [1]: 47.1 µM
- GI50 [2]: 29.8 µM
- TGI [2]: > 100 µM
- GI50 [3]: > 100 µM
- TGI [3]: > 100 µM
- GI50 [4]: 30.9 µM
- TGI [4]: > 100 µM
- GI50 [5]: 3.2 µM
- TGI [5]: 27.6 µM
- GI50 [6]: 21.3 µM
- TGI [6]: 47.4 µM
- GI50 [7]: 20.2 µM
- TGI [7]: > 100 µM
- GI50 [8]: 39.5 µM
- TGI [8]: > 100 µM
- GI50 [9]: 23.9 µM
- TGI [9]: 87.2 µM
- GI50 [10]: 35.6 µM
- TGI [10]: > 100 µM
- GI50 [11]: 3.61 µM
- TGI [11]: 15 µM
- GI50 [12]: 37.5 µM
- TGI [12]: > 100 µM
- GI50 [13]: 26.2 µM
- TGI [13]: > 100 µM
- GI50 [14]: 39.3 µM
- TGI [14]: > 100 µM
- GI50 [15]: 37.2 µM
- TGI [15]: > 100 µM
- GI50 [16]: 13 µM
- TGI [16]: 53 µM
- GI50 [17]: 31.3 µM
- TGI [17]: > 100 µM
- GI50 [18]: 22.6 µM
- TGI [18]: > 100 µM
- GI50 [19]: 10.7 µM
- TGI [19]: 39.3 µM
- GI50 [20]: 1440 nM
- TGI [20]: 18.1 µM
- GI50 [21]: 25.2 µM
- TGI [21]: > 100 µM
- GI50 [22]: 27.8 µM
- TGI [22]: 79.8 µM
- GI50 [23]: 13.6 µM
- TGI [23]: 44 µM
- GI50 [24]: 20 µM
- TGI [24]: 66.4 µM
- GI50 [25]: 26.6 µM
- TGI [25]: > 100 µM
- GI50 [26]: 47.2 µM
- TGI [26]: 97.6 µM
- GI50 [27]: 1950 nM
- TGI [27]: 20.2 µM
- GI50 [28]: 21.9 µM
- TGI [28]: > 100 µM
- GI50 [29]: 29.8 µM
- TGI [29]: > 100 µM
- GI50 [30]: 11.7 µM
- TGI [30]: 39.8 µM
- GI50 [31]: 20.1 µM
- TGI [31]: > 100 µM
- GI50 [32]: 7.79 µM
- TGI [32]: 39.1 µM
- GI50 [33]: 28.8 µM
- TGI [33]: > 100 µM
- GI50 [34]: 32.3 µM
- TGI [34]: > 100 µM
- GI50 [35]: > 100 µM
- TGI [35]: > 100 µM
- GI50 [36]: 291 nM
- TGI [36]: 25.3 µM
- GI50 [37]: 36.6 µM
- TGI [37]: > 100 µM
- GI50 [38]: 13 µM
- TGI [38]: 75.3 µM
- GI50 [39]: 12.3 µM
- TGI [39]: 63.9 µM
- GI50 [40]: 49.6 µM
- TGI [40]: > 100 µM
- GI50 [41]: 5.13 µM
- TGI [41]: 87.1 µM
- GI50 [42]: 25.4 µM
- TGI [42]: 86.2 µM
- GI50 [43]: 19.8 µM
- TGI [43]: 58.1 µM
- GI50 [44]: 24.7 µM
- TGI [44]: > 100 µM
- GI50 [45]: 42.2 µM
- TGI [45]: > 100 µM
- GI50 [46]: 51.9 µM
- TGI [46]: > 100 µM
- GI50 [47]: 23.1 µM
- TGI [47]: > 100 µM
- GI50 [48]: 13.8 µM
- TGI [48]: 87.9 µM
- GI50 [49]: 17.8 µM
- TGI [49]: > 100 µM
- GI50 [50]: 22.8 µM
- TGI [50]: > 100 µM
- GI50 [51]: 34.1 µM
- TGI [51]: > 100 µM
- GI50 [52]: 24.4 µM
- TGI [52]: 91.2 µM
- GI50 [53]: 34.6 µM
- TGI [53]: > 100 µM
- GI50 [54]: 15.9 µM
- TGI [54]: 46.8 µM
- GI50 [55]: 41.1 µM
- TGI [55]: > 100 µM
